The source of these data is PMC9283668, “Natural and commercial antibiotic comparison with drugs modeling cell integrity cell stability of Bio-Kinetics changes under morphological topographies cells with lower toxicological characteristics for multidrug resistances problem” (Saudi Journal of Biological Sciences, 2022).

The format of data set [1] is in vitro ADME. The procedure: Pharmacokinetic compartment modelling was used on these novel substances, which had been derived from A. […]. procera. The half-life was determined by the regions under plasma concentration, while the peak plasma concentration as well as timing acquired immediately from the dataset obtained in this investigation. Medicinal phyto-constituents were incorporated to the compartment model and an automatic calculating software tool was coupled with win-Nonlin ® Software to these bioactive chemicals.

How the values of data set [2] were obtained:
Pharmacokinetic compartment modelling was used on these novel substances, which had been derived from A. vasica and C. procera. The half-life was determined by the regions under plasma concentration, while the peak plasma concentration as well as timing acquired immediately from the dataset obtained in this investigation. Medicinal phyto-constituents were incorporated to the compartment model and an automatic calculating software tool was coupled with win-Nonlin ® Software to these bioactive chemicals.
Selected compounds were administered using a one-compartment oral dosage model, extract the one-compartment model parameters, the non-compartment model Parameters are necessary. The equations for non-compartment and one-compartment variables are given below respectively. • (1) w = (AUC, T max, T1/2) • (2) β = (ka, ke, V). • (3) β = (ke, V) • (4) CL po = V × Ke
If only oral clearance is required, CL po should be used instead of AUC. When it comes to IV dosage, however, just w = (AUC, T1/2) is required to claim the single dozes changes in (3).
Plasma concertation either orally or via an injection of selected compounds The natural antibiotic compounds by being taken into cells and either bacterial changes and it formed a tragedy to cells as expressed complete changes used in the formation of ATP in cells. The pharmacokinetic description of antibiotic compounds are shown in below equation and represented mathematically by equations (1), (2), (3), (4).(1) dSdt=rS,end+rS,ex-rS,elim (2) rS,end=f(t,S,I,G,E,F,A,KS,end) (3) rS,ex=g(t,MS) (4) rS,elim=h(t,S,I,E,KS,elim)

As to S-allylcysteine acid, the “Absorption capacity (Mean)” value in data set [1] was 2.1. Further, in data set [2], the “AUC, area under plasma concentration (Mean)” value is 0.1 and the “Half life (Mean)” value is listed as 2.1.

As for `CCCCC/C=C\C/C=C\CCCCCCCC(=O)O[C@H]1CC[C@@]2(C)C(=CC[C@H]3[C@@H]4CC[C@H]([C@H](C)CC[C@@H](CC)C(C)C)[C@@]4(C)CC[C@@H]32)C1` [B-Sitosteryl linoleate], in data set [2], the “AUC, area under plasma concentration (Mean)” value was found to be 0.1.

As to Myristyl diglucoside, in data set [2], the “T max (Mean)” value is 0.2.
